Measurements: US8759348B2, “Use of 4-(pyrrolidin-1-yl)quinoline compounds to kill clinically latent microorganisms” (Helperby Therapeutics Limited, priority 2007, dated 2014)

Tested on: persister Mycobacterium tuberculosis
Type: cell-based
Settings: 10 μg/mL of test compound

In the case of `Cc1cc(N2CCC(Cc3ccccc3)C2)c2cc(Oc3ccccc3)ccc2n1.Cl` (stereo not shown) [Example 8, 4-(3-Benzylpyrrolidin-1-yl)-2-methyl-6-phenoxyquinoline hydrochloride], the log kill was 2.26.
